# Patent US20250019387A1 (Frontier Medicines Corporation, priority 0001, published 2025)
# pIC50: −log10 of the molar value.
# Target: KRAS G12C and cRAF (Ras-binding domain) interaction (Homo sapiens (Human), UniProt P01116, C118S/C51S/C80L/G12C)
# Assay: Inhibition of KRAS G12C and cRAF binding (AlphaScreen)
# Details: GMPPNP-loaded KRAS G12C, 19-20 hours incubation with compound; read-out: IC50 (Inhibition of KRAS G12C and cRAF Binding)
# Summary of the method: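 Compounds (DMSO) preincubated 19-20 h at room temperature, then RBD with streptavidin donor and glutathione acceptor beads added in 25 mM Hepes pH 7.4, 150 mM NaCl, 5 mM MgCl2, 0.01% Triton X-100, 2% DMSO for 60-90 min. Emission 570 nm (excitation 680 nm); IC50 by 4-parameter fit. Counter-screen used biotin-AviTag-GST instead of RBD.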
# Sequence of KRAS G12C and cRAF (Ras-binding domain) interaction (P01116 other isoform, or with tags, fused parts or gaps G12C/C51S/C80L/C118S): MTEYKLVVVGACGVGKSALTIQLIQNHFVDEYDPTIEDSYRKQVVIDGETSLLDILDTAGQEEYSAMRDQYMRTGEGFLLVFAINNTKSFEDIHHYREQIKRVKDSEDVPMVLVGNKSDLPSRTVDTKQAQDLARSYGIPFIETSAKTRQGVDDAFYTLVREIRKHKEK
row,SMILES,pIC50
1,"CC(C)c1noc(/C=C/C(=O)N2CC(CN(C)c3nc(OC[C@@]45CCCN4C[C@H](F)C5)nc4c(F)c(-c5cccc6cccc(Cl)c56)ncc34)C2)n1 [Example 106, (E)-1-(3-(((7-(8-chloronaphthalen-1-yl)-8-fluoro-2-(((2R,7aS)-2-fluorotetrahydro-1H-pyrrolizin-7a(5H)-yl)methoxy)pyrido[4,3-d]pyrimidin-4-yl)(methyl)amino)methyl)azetidin-1-yl)-3-(3-isopropyl-1,2,4-oxadiazol-5-yl)prop-2-en-1-one]",7.00 to 8.00
2,"CN(c1nc(OC[C@@]23CCCN2C[C@H](F)C3)nc2c(F)c(-c3cccc4ccc(F)c(Cl)c34)ncc12)[C@@H]1CCN(C(=O)C#CCN2CC(F)(F)C2)C1 [Example 209, 1-((R)-3-((7-(8-chloro-7-fluoronaphthalen-1-yl)-8-fluoro-2-(((2R,7aS)-2-fluorohexahydro-1H-pyrrolizin-7a-yl)methoxy)pyrido[4,3-d]pyrimidin-4-yl)(methyl)amino)pyrrolidin-1-yl)-4-(3,3-difluoroazetidin-1-yl)but-2-yn-1-one]",7.00 to 8.00
3,"COC(=O)/C=C/C(=O)N1C[C@H](N(C)c2nc(OCC34CCCN3CCC4)nc3c2CCN(c2cccc4cccc(Cl)c24)C3)C[C@@H]1C [Example 20, methyl(E)-4-((2S,4R)-4-((7-(8-chloronaphthalen-1-yl)-2-((tetrahydro-1H-pyrrolizin-7a(5H)-yl)methoxy)-5,6,7,8-tetrahydropyrido[3,4-d]pyrimidin-4-yl)(methyl)amino)-2-methylpyrrolidin-1-yl)-4-oxobut-2-enoate]",7.00 to 8.00
4,"Cc1nccc(/C=C/C(=O)N2CC[C@@H](N(C)c3nc(OC[C@@]45CCCN4C[C@H](F)C5)nc4c(F)c(-c5cccc6ccc(F)c(F)c56)ncc34)C2)n1 [Example 271, (E)-1-((R)-3-((7-(7,8-difluoronaphthalen-1-yl)-8-fluoro-2-(((2R,7aS)-2-fluorotetrahydro-1H-pyrrolizin-7a(5H)-yl)methoxy)pyrido[4,3-d]pyrimidin-4-yl)(methyl)amino)pyrrolidin-1-yl)-3-(2-methylpyrimidin-4-yl)prop-2-en-1-one]",7.00 to 8.00
5,"C=CC(=O)N1C[C@H](F)[C@@H](N(C)c2nc(OCC34CCCN3CCC4)nc3c(F)c(-c4cccc5ccc(F)c(Cl)c45)ncc23)C1 [Example 237, 1-((3S,4S)-3-((7-(8-chloro-7-fluoronaphthalen-1-yl)-8-fluoro-2-((tetrahydro-1H-pyrrolizin-7a(5H)-yl)methoxy)pyrido[4,3-d]pyrimidin-4-yl)(methyl)amino)-4-fluoropyrrolidin-1-yl)prop-2-en-1-one]",7.00 to 8.00
6,"Cc1c(F)ccc2cccc(-c3ncc4c(N(C)[C@@H]5CCN(C(=O)/C=C/CN(C)C)C5)nc(OC[C@@]56CCCN5C[C@H](F)C6)nc4c3F)c12 [Example 202, (E)-4-(dimethylamino)-1-((R)-3-((8-fluoro-7-(7-fluoro-8-methylnaphthalen-1-yl)-2-(((2R,7aS)-2-fluorotetrahydro-1H-pyrrolizin-7a(5H)-yl)methoxy)pyrido[4,3-d]pyrimidin-4-yl)(methyl)amino)pyrrolidin-1-yl)but-2-en-1-one]",7.00 to 8.00
7,"CN(c1nc(OC[C@@]23CCCN2C[C@H](F)C3)nc2c(F)c(-c3cccc4cccc(Cl)c34)ncc12)[C@@H]1CCN(C(=O)C#C[C@]2(C)CCCN2C)C1 [Example 193, 1-((R)-3-((7-(8-chloronaphthalen-1-yl)-8-fluoro-2-(((2R,7aS)-2-fluorohexahydro-1H-pyrrolizin-7a-yl)methoxy)pyrido[4,3-d]pyrimidin-4-yl)(methyl)amino)pyrrolidin-1-yl)-3-((S)-1,2-dimethylpyrrolidin-2-yl)prop-2-yn-1-one]",7.00 to 8.00
8,"CN1CC(/C=C/C(=O)N2CC[C@@H](N(C)c3nc(OC[C@@]45CCCN4C[C@H](F)C5)nc4c(F)c(-c5cccc6ccc(F)c(Cl)c56)ncc34)C2)C1 [Example 127, (E)-1-((R)-3-((7-(8-chloro-7-fluoronaphthalen-1-yl)-8-fluoro-2-(((2R,7aS)-2-fluorotetrahydro-1H-pyrrolizin-7a(5H)-yl)methoxy)pyrido[4,3-d]pyrimidin-4-yl)(methyl)amino)pyrrolidin-1-yl)-3-(1-methylazetidin-3-yl)prop-2-en-1-one]",6.30 to 7.00
9,"CN1CCC(C#CC(=O)N2CC[C@@H](N(C)c3nc(OC[C@@]45CCCN4C[C@H](F)C5)nc4c(F)c(-c5cccc6cccc(Cl)c56)ncc34)C2)C1 (stereo partly drawn) [Example 65, 1-((R)-3-((7-(8-chloronaphthalen-1-yl)-8-fluoro-2-(((2R,7aS)-2-fluorohexahydro-1H-pyrrolizin-7a-yl)methoxy)pyrido[4,3-d]pyrimidin-4-yl)(methyl)amino)pyrrolidin-1-yl)-3-(1-methylpyrrolidin-3-yl)prop-2-yn-1-one]",7.00 to 8.00
10,"C=CC(=O)N1C[C@@H](N(C)c2nc(OC[C@@]34CCCN3C[C@H](F)C4)nc3c(F)c(-c4cccc5cccc(Cl)c45)ncc23)C(F)(F)C1 [Example 285, 1-((R)-4-((7-(8-chloronaphthalen-1-yl)-8-fluoro-2-(((2R,7aS)-2-fluorotetrahydro-1H-pyrrolizin-7a(5H)-yl)methoxy)pyrido[4,3-d]pyrimidin-4-yl)(methyl)amino)-3,3-difluoropyrrolidin-1-yl)prop-2-en-1-one]",< 6.30
11,"C=CC(=O)N1C[C@H](N(C)c2nc(OCC34CCCN3CCC4)nc3c(F)c(-c4cccc5cccc(Cl)c45)ncc23)C[C@H]1CC#N [Example 119, 2-((2S,4R)-1-acryloyl-4-((7-(8-chloronaphthalen-1-yl)-8-fluoro-2-((tetrahydro-1H-pyrrolizin-7a(5H)-yl)methoxy)pyrido[4,3-d]pyrimidin-4-yl)(methyl)amino)pyrrolidin-2-yl)acetonitrile]",6.30 to 7.00
12,"C#Cc1c(F)ccc2cccc(-c3ncc4c(N(C)[C@@H]5CCN(C(=O)/C=C/c6nc(C)nc(C)c6F)C5)nc(OC[C@@]56CCCN5C[C@H](F)C6)nc4c3F)c12 [Example 302, (E)-1-((R)-3-((7-(8-ethynyl-7-fluoronaphthalen-1-yl)-8-fluoro-2-(((2R,7aS)-2-fluorotetrahydro-1H-pyrrolizin-7a(5H)-yl)methoxy)pyrido[4,3-d]pyrimidin-4-yl)(methyl)amino)pyrrolidin-1-yl)-3-(5-fluoro-2,6-dimethylpyrimidin-4-yl)prop-2-en-1-one]",7.00 to 8.00
13,"CN(c1nc(OC[C@@]23CCCN2C[C@H](F)C3)nc2c(F)c(-c3cccc4ccc(F)c(Cl)c34)ncc12)[C@@H]1CCN(C(=O)/C=C/C2CCCO2)C1 (stereo partly drawn) [Example 252, (E)-1-((R)-3-((7-(8-chloro-7-fluoronaphthalen-1-yl)-8-fluoro-2-(((2R,7aS)-2-fluorotetrahydro-1H-pyrrolizin-7a(5H)-yl)methoxy)pyrido[4,3-d]pyrimidin-4-yl)(methyl)amino)pyrrolidin-1-yl)-3-(tetrahydrofuran-2-yl)prop-2-en-1-one]",6.30 to 7.00
14,"CN(C)C/C=C/S(=O)(=O)CCN(C)c1nc(OC[C@@H]2CCCN2C)nc2c1CCN(c1cccc3cccc(Cl)c13)C2 [Example 52, (S,E)-7-(8-chloronaphthalen-1-yl)-N-(2-((3-(dimethylamino)prop-1-en-1-yl)sulfonyl)ethyl)-N-methyl-2-((1-methylpyrrolidin-2-yl)methoxy)-5,6,7,8-tetrahydropyrido[3,4-d]pyrimidin-4-amine]",7.00 to 8.00
15,"CC(C)OC(=O)/C=C/C(=O)N1CC[C@@H](N(C)c2nc(OCC34CCCN3CCC4)nc3c2CCN(c2cccc4cccc(Cl)c24)C3)C1 [Example 18, isopropyl(R,E)-4-(3-((7-(8-chloronaphthalen-1-yl)-2-((tetrahydro-1H-pyrrolizin-7a(5H)-yl)methoxy)-5,6,7,8-tetrahydropyrido[3,4-d]pyrimidin-4-yl)(methyl)amino)pyrrolidin-1-yl)-4-oxobut-2-enoate]",> 8.00
16,"CN(c1nc(OCC23CCCN2CCC3)nc2c(F)c(-c3cccc4cccc(Cl)c34)ncc12)[C@@H]1CCN(C(=O)/C=C/c2nc(C3COC3)no2)C1 [Example 155, (R,E)-1-(3-((7-(8-chloronaphthalen-1-yl)-8-fluoro-2-((tetrahydro-1H-pyrrolizin-7a(5H)-yl)methoxy)pyrido[4,3-d]pyrimidin-4-yl)(methyl)amino)pyrrolidin-1-yl)-3-(3-(oxetan-3-yl)-1,2,4-oxadiazol-5-yl)prop-2-en-1-one]",> 8.00

# Same assay, conditions: additional exemplary compounds; KRAS G12C and cRAF binding; read-out: RAF1 RBD IC50
row,SMILES,pIC50
1,Cc1noc(/C=C/C(=O)NCCN(C)c2nc(OCC34CCCN3CCC4)nc3c2CCN(c2cccc4cccc(Cl)c24)C3)n1,6.30 to 7.00
2,C=CC(=O)C[C@H](C)N(C)c1nc(OC[C@@H]2CCCN2C)nc2c1CCN(c1cccc3ccccc13)C2,< 6.30
3,C=CC(=O)N1CCC[C@@H](N(C)c2nc(OC[C@@]34CCCN3C[C@H](F)C4)nc3c(F)c(-c4cccc5cccc(Cl)c45)ncc23)C1,< 6.30
4,N#CN1C2CCC1CN(c1nc(OC[C@@]34CCCN3C[C@H](F)C4)nc3c1CCN(c1cccc4ccc(F)c(Cl)c14)C3)C2,< 6.30
5,C=CC(=O)N1CC[C@H]2[C@H]1CCN2c1nc(OCC23CCCN2CCC3)nc2c1CCN(c1cccc3cccc(Cl)c13)C2,< 6.30
6,CN(C)C/C=C/C(=O)N1CC[C@@H](N(C)c2nc(OC[C@@H]3CCCN3C)nc3c2CCN(c2cccc4cccc(Cl)c24)C3)C1,6.30 to 7.00
7,CN1CCC[C@H]1COc1nc(N(C)[C@@H]2CCN(C(=O)/C=C/CN3CC(F)(F)C3)C2)c2cnc(-c3cccc4cccc(Cl)c34)c(F)c2n1,6.30 to 7.00
8,N#CN1CCC(N(c2nc(OC[C@@]34CCCN3C[C@H](F)C4)nc3c(F)c(-c4cccc5cccc(Cl)c45)ncc23)C2CC2)C1 (stereo partly shown),7.00 to 8.00
9,C=CC(=O)N1CC(CN(C)c2nc(OCC34CCCN3CCC4)nc3c2CCN(c2cccc4cccc(Cl)c24)C3)C1,6.30 to 7.00
